# Results as given in publication PMC5096949 (Toxicology letters, 2016).
# Entries after “also recorded” stand apart in the source; their conditions may differ.
# Assays:
# [1] = target: T1, Human Recombinant FAAH (fatty acid amide hydrolase) (Homo sapiens, UniProt O00519); experiment: FAAH inhibition, fluorimetric assay with OMP substrate, recombinant enzyme; assay type: biochemical; conditions: for activity / potency towards FAAH (in words): recombinant FAAH
# T1 sequence (O00519 1-579): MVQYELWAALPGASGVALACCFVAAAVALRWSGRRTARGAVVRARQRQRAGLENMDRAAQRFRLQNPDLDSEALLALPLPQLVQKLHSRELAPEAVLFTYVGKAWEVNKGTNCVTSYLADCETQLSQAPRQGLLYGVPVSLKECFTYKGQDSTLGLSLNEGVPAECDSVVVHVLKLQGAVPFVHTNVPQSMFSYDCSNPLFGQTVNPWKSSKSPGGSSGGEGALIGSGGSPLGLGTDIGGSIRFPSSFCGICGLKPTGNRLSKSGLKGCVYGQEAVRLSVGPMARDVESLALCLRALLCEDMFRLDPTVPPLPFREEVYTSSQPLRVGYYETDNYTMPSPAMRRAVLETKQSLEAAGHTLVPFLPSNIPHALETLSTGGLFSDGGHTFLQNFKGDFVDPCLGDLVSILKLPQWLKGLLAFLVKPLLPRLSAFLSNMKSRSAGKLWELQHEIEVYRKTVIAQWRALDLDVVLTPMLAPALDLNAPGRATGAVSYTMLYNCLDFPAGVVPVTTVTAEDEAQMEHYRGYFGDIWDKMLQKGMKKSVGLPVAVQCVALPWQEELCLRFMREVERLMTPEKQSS
# [2] = tested on: PPARγ, C/EBPα and FABP4 mRNA expression; experiment: RT-PCR of adipocyte marker genes in 3T3-L1 cells; assay type: cell-based, Murine; conditions: for effect on AEA-induced adipocyte marker expression: 3T3-L1, 10 μM compound, co-treatment with AEA 10 μM; for PPARγ, C/EBPα and FABP4 mRNA expression: 3T3-L1, 1, 10, 50 μM for 7 days, n = 3
# [3] = target: T2, Mouse Brain Microsomes (FAAH) (Mus musculus, UniProt O08914); experiment: FAAH inhibition in brain microsomes, OMP hydrolysis
# T2 sequence (O08914 1-579): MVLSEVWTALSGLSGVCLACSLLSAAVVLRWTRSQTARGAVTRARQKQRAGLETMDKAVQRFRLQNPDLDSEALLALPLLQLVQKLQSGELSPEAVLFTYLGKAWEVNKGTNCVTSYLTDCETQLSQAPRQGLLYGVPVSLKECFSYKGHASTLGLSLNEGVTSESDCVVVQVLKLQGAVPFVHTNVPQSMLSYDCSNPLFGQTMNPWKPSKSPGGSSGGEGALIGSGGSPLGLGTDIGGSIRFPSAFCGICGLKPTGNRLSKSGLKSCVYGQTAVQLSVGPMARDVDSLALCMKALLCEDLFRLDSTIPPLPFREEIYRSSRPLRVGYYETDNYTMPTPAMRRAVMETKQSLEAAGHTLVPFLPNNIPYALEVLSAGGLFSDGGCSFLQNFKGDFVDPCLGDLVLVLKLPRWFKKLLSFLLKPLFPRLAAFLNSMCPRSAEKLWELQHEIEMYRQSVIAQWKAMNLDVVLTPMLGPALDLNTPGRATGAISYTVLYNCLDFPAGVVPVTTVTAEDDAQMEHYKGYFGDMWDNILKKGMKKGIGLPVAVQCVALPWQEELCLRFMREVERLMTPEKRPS
# [4] = target: T3, Rat Brain Microsomes (FAAH) (Rattus norvegicus, UniProt P97612); experiment: as above
# T3 sequence (P97612 1-579): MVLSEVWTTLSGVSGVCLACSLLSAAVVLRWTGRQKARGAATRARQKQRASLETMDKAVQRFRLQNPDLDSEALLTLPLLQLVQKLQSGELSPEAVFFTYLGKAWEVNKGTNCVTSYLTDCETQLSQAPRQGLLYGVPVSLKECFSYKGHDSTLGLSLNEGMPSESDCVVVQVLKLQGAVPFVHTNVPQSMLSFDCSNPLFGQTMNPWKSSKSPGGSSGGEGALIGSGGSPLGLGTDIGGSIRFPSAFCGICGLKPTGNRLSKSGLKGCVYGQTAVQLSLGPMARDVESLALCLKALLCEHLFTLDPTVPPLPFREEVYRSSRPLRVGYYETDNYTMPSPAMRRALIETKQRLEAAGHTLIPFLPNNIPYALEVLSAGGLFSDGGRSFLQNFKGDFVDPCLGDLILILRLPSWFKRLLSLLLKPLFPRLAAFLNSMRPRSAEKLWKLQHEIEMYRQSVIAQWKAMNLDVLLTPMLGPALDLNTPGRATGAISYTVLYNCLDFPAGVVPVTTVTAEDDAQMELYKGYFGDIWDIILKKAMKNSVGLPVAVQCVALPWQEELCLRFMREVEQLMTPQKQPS
# [5] = human exposure; ref Calafat et al., 2010; Tefre de Renzy-Martin et al., 2014; cited from earlier work
# [6] = target: T4, Human Recombinant hCE1 (carboxylesterase 1) (Homo sapiens, UniProt P23141); experiment: Esterase inhibition, fluorimetric assay with CMNA substrate; assay type: biochemical
# T4 sequence (P23141 18-567): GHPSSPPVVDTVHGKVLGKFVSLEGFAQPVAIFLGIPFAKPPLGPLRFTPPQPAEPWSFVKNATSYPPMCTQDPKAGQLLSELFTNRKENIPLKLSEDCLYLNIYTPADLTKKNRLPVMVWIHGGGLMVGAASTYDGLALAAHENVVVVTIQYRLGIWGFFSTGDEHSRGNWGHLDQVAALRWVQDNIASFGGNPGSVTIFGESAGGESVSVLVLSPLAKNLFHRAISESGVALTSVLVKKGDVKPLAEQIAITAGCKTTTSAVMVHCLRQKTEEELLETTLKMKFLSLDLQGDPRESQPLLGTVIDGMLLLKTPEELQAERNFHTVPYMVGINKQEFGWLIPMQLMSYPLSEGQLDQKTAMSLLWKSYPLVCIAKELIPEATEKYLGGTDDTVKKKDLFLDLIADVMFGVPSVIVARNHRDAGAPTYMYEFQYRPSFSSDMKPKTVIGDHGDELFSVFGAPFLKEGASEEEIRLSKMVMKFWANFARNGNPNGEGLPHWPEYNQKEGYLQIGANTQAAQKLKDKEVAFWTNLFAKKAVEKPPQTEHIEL
# 3T3-L1 cells = experiment: 3T3-L1 adipocyte differentiation, Oil Red O staining of lipid accumulation; assay type: cell-based, Murine; conditions: for effect on AEA-mediated adipocyte differentiation (Oil Red O): 10 μM compound, co-treatment with AEA 10 μM, 7 days; for adipocyte differentiation / lipid accumulation (Oil Red O staining): 1, 10, 50 μM for 7 days
# [7] = target: T5, Human Recombinant hCE2 (carboxylesterase 2) (Homo sapiens, UniProt O00748); experiment: Esterase inhibition, fluorimetric assay with CMNA substrate; assay type: biochemical
# T5 sequence (O00748 27-559): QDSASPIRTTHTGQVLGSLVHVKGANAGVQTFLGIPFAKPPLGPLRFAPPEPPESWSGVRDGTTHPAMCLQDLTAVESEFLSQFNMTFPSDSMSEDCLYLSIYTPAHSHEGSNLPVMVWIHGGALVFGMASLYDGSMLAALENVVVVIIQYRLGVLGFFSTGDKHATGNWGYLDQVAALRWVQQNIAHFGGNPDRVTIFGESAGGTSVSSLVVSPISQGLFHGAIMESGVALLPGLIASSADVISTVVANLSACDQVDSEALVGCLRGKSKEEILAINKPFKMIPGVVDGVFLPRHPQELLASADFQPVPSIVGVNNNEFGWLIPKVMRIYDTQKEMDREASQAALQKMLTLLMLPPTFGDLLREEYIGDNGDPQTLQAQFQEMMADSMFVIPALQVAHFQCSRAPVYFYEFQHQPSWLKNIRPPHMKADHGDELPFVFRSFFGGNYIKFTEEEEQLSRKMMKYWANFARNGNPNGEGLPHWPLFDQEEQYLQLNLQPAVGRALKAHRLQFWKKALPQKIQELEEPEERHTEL
# [8] = target: T6, Human Recombinant AADAC (arylacetamide deacetylase) (Homo sapiens, UniProt P22760); experiment: as above; assay type: biochemical
# T6 sequence (P22760 1-399): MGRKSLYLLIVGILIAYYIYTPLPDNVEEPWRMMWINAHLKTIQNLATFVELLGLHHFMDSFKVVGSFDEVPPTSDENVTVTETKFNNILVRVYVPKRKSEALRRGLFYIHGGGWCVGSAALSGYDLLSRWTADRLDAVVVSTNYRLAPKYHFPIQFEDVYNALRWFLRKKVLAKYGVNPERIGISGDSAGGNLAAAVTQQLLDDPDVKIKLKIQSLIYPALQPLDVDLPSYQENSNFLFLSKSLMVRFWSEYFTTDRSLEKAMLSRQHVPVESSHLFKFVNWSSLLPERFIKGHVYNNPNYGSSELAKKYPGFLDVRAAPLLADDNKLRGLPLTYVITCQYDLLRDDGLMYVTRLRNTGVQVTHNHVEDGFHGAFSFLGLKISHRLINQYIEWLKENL
compound,measurement,setting,value
"O=C(O)c1ccc(O)cc1 [4-HO-benzoate, 4-hydroxybenzoic acid]",activity / potency towards FAAH (in words),[1],completely inactive
"CCCCC/C=C\C/C=C\C/C=C\C/C=C\CCCC(=O)NCCO [AEA, arachidonoyl ethanolamide, reference compound]",expression of markers of differentiation,"[2]; 3T3-L1, AEA 10 μM, 7 days",increased expression of several markers of differentiation (PPARγ and C/EBPα)
"CCCCOC(=O)c1ccc(O)cc1 [Butylparaben, butylparaben]",IC50,[3],1600 nM
same,IC50,[4],1100 nM
same,urinary concentrations,[5],0.1 to 0.5 µM
same,IC50,[6],> 10000 nM
same,effect on AEA-mediated adipocyte differentiation (Oil Red O),3T3-L1 cells,do not synergize to increase adipocyte differentiation
same,adipocyte differentiation / lipid accumulation (Oil Red O staining),3T3-L1 cells,dose-dependently enhanced 3T3-L1 adipocyte differentiation
same,time-dependence of FAAH inhibition,[1]; pre-incubation of enzyme with inhibitor up to 1 h,independent on incubation time
same,effect on AEA-induced adipocyte marker expression,[2]; 7 days,not significantly changed
same,"PPARγ, C/EBPα and FABP4 mRNA expression",[2],"enhanced PPARγ, C/EBPα and FABP4 mRNA expression"
same,IC50,[7],> 10000 nM
same,IC50,[8],> 10 µM
COc1ccc(C(=O)OCc2ccccc2)cc1 [Compound 2],activity / potency towards FAAH (in words),[1],completely removed potency
O=C(OCc1ccccc1)c1ccccc1 [Compound 3],activity / potency towards FAAH (in words),[1],completely removed potency
O=C(OCc1ccccc1)c1ccc([N+](=O)[O-])cc1 [Compound 4],activity / potency towards FAAH (in words),[1],completely removed potency
O=C(OCC1CCCCC1)c1ccc(O)cc1 [Compound 5],decrease in potency relative to benzylparaben,"[1]; FAAH IC50, 5 min pre-incubation",2 fold
"CCCCCCCOC(=O)c1ccc(O)cc1 [Compound 6, heptylparaben]",activity / potency towards FAAH (in words),[1],no change in potency
"COC(=O)c1ccc(O)cc1 [Methylparaben, methylparaben]",activity / potency towards FAAH (in words),[1],completely inactive
"O=C(Nc1ccccc1)N1CCN(Cc2ccc3ccccc3n2)CC1 [PF622, N-phenyl-4-(quinolin-2-ylmethyl)piperazine-1-carboxamide]",effect on AEA-mediated adipocyte differentiation (Oil Red O),3T3-L1 cells,do not synergize to increase adipocyte differentiation
same,adipocyte differentiation / lipid accumulation (Oil Red O staining),3T3-L1 cells,had no effects at any of the doses tested
"NC(=O)c1cccc(-c2cccc(OC(=O)NC3CCCCC3)c2)c1 [URB597, 3′-carbamoyl-[1,1′-biphenyl]-3-yl cyclohexylcarbamate, reference compound]",OMP hydrolysis remaining,"[3]; 50 nM, mouse brain microsomes",less than 20%
same,inhibition at 0.05 µM,[3]; read-out: inhibition of activity (OMP hydrolysis),> 80%
same,IC50,[6],2200 nM
same,effect on AEA-mediated adipocyte differentiation (Oil Red O),3T3-L1 cells,do not synergize to increase adipocyte differentiation
same,adipocyte differentiation / lipid accumulation (Oil Red O staining),3T3-L1 cells,"only exposure to 10 μM of URB597 resulted in increased lipid accumulation; also recorded: increased differentiation and only at a concentration of 10 μM, not at 50 μM"
same,effect on AEA-induced adipocyte marker expression,[2]; 7 days,not significantly changed
same,"PPARγ, C/EBPα and FABP4 mRNA expression",[2],"increased PPARγ, C/EBPα and FABP4 mRNA expression"
same,IC50,[7],730 nM
same,IC50,[8],> 10 µM
